The NIST ThermoML archive (doi:10.1021/je500050p)
Numbers after ± are expanded uncertainties.

Experiment: activity coefficient (dimensionless); of the first substance listed, at infinite dilution; xn = mol fraction of the nth substance listed
Conditions: 101 kPa, Liquid, Chromatography, x1 = 0

SMILES	activity coefficient (323.15 K)	activity coefficient (333.15 K)	activity coefficient (343.15 K)	activity coefficient (353.15 K)	activity coefficient (373.15 K)
Cc1ccccc1C [1,2-dimethylbenzene] + CC1(C)[C@@H]2CC[C@@]1(CS(=O)(=O)[O-])C(=O)C2.CCCCCCCCCCCCCC[N+](CCCCCC)(CCCCCC)CCCCCC	0.49 ± 0.04	0.77 ± 0.05	1.13 ± 0.07		
Cc1ccccc1C [1,2-dimethylbenzene] + CCCCCCCCCCCCCC[N+](CCCCCC)(CCCCCC)CCCCCC.C[C@H](O)C(=O)[O-]	0.53 ± 0.04			0.55 ± 0.04	0.58 ± 0.04
Cc1cccc(C)c1 [1,3-dimethylbenzene] + CC1(C)[C@@H]2CC[C@@]1(CS(=O)(=O)[O-])C(=O)C2.CCCCCCCCCCCCCC[N+](CCCCCC)(CCCCCC)CCCCCC	0.52 ± 0.04	0.81 ± 0.05	1.16 ± 0.07		
Cc1cccc(C)c1 [1,3-dimethylbenzene] + CCCCCCCCCCCCCC[N+](CCCCCC)(CCCCCC)CCCCCC.C[C@H](O)C(=O)[O-]	0.57 ± 0.04			0.59 ± 0.04	0.6 ± 0.1
Cc1ccc(C)cc1 [1,4-dimethylbenzene] + CC1(C)[C@@H]2CC[C@@]1(CS(=O)(=O)[O-])C(=O)C2.CCCCCCCCCCCCCC[N+](CCCCCC)(CCCCCC)CCCCCC	0.51 ± 0.04	0.8 ± 0.1	1.17 ± 0.07		
Cc1ccc(C)cc1 [1,4-dimethylbenzene] + CCCCCCCCCCCCCC[N+](CCCCCC)(CCCCCC)CCCCCC.C[C@H](O)C(=O)[O-]	0.58 ± 0.04			0.58 ± 0.04	0.58 ± 0.04
C1COCCO1 [1,4-dioxane] + CC1(C)[C@@H]2CC[C@@]1(CS(=O)(=O)[O-])C(=O)C2.CCCCCCCCCCCCCC[N+](CCCCCC)(CCCCCC)CCCCCC	0.52 ± 0.04	0.74 ± 0.05	1		
C#CCCCCC [1-heptyne] + CC1(C)[C@@H]2CC[C@@]1(CS(=O)(=O)[O-])C(=O)C2.CCCCCCCCCCCCCC[N+](CCCCCC)(CCCCCC)CCCCCC	0.49 ± 0.04	0.78 ± 0.05	1.17 ± 0.07		
C#CCCCC [1-hexyne] + CC1(C)[C@@H]2CC[C@@]1(CS(=O)(=O)[O-])C(=O)C2.CCCCCCCCCCCCCC[N+](CCCCCC)(CCCCCC)CCCCCC	0.46 ± 0.04	0.69 ± 0.05	0.95 ± 0.06		
CCC[N+](=O)[O-] [1-nitropropane] + CC1(C)[C@@H]2CC[C@@]1(CS(=O)(=O)[O-])C(=O)C2.CCCCCCCCCCCCCC[N+](CCCCCC)(CCCCCC)CCCCCC	0.35 ± 0.03	0.55 ± 0.04	0.82 ± 0.05		
CCC[N+](=O)[O-] [1-nitropropane] + CCCCCCCCCCCCCC[N+](CCCCCC)(CCCCCC)CCCCCC.C[C@H](O)C(=O)[O-]	0.33 ± 0.03			0.34 ± 0.03	0.36 ± 0.03
CC(C)CC(C)(C)C [2,2,4-trimethylpentane] + CCCCCCCCCCCCCC[N+](CCCCCC)(CCCCCC)CCCCCC.C[C@H](O)C(=O)[O-]	1.33 ± 0.09			1.27 ± 0.08	1.25 ± 0.08
CC(C)CO [2-methyl-1-propanol] + CC1(C)[C@@H]2CC[C@@]1(CS(=O)(=O)[O-])C(=O)C2.CCCCCCCCCCCCCC[N+](CCCCCC)(CCCCCC)CCCCCC	0.08 ± 0.03	0.15 ± 0.03	0.24 ± 0.03		
CC#N [acetonitrile] + CC1(C)[C@@H]2CC[C@@]1(CS(=O)(=O)[O-])C(=O)C2.CCCCCCCCCCCCCC[N+](CCCCCC)(CCCCCC)CCCCCC	0.46 ± 0.04	0.66 ± 0.05	0.89 ± 0.06		
CC#N [acetonitrile] + CCCCCCCCCCCCCC[N+](CCCCCC)(CCCCCC)CCCCCC.C[C@H](O)C(=O)[O-]	0.45 ± 0.04			0.44 ± 0.04	0.43 ± 0.04
c1ccccc1 [benzene] + CC1(C)[C@@H]2CC[C@@]1(CS(=O)(=O)[O-])C(=O)C2.CCCCCCCCCCCCCC[N+](CCCCCC)(CCCCCC)CCCCCC	0.36 ± 0.03	0.51 ± 0.04	0.69 ± 0.05		
c1ccccc1 [benzene] + CCCCCCCCCCCCCC[N+](CCCCCC)(CCCCCC)CCCCCC.C[C@H](O)C(=O)[O-]	0.38 ± 0.03			0.38 ± 0.03	0.39 ± 0.03
CCCCO [butan-1-ol] + CC1(C)[C@@H]2CC[C@@]1(CS(=O)(=O)[O-])C(=O)C2.CCCCCCCCCCCCCC[N+](CCCCCC)(CCCCCC)CCCCCC	0.09 ± 0.03	0.15 ± 0.03	0.27 ± 0.03		
CCC(C)=O [butanone] + CC1(C)[C@@H]2CC[C@@]1(CS(=O)(=O)[O-])C(=O)C2.CCCCCCCCCCCCCC[N+](CCCCCC)(CCCCCC)CCCCCC	0.43 ± 0.04	0.57 ± 0.04	0.73 ± 0.05		
C1CCCCC1 [cyclohexane] + CC1(C)[C@@H]2CC[C@@]1(CS(=O)(=O)[O-])C(=O)C2.CCCCCCCCCCCCCC[N+](CCCCCC)(CCCCCC)CCCCCC	0.69 ± 0.05	0.95 ± 0.06	1.24 ± 0.08		
C1CCCCC1 [cyclohexane] + CCCCCCCCCCCCCC[N+](CCCCCC)(CCCCCC)CCCCCC.C[C@H](O)C(=O)[O-]	0.77 ± 0.05			0.73 ± 0.05	0.71 ± 0.05

SMILES	activity coefficient (323.15 K)	activity coefficient (333.15 K)	activity coefficient (343.15 K)	activity coefficient (353.15 K)	activity coefficient (373.15 K)
CCCCCCCCCC [decane] + CC1(C)[C@@H]2CC[C@@]1(CS(=O)(=O)[O-])C(=O)C2.CCCCCCCCCCCCCC[N+](CCCCCC)(CCCCCC)CCCCCC	1.52 ± 0.1	2.41 ± 0.16	3.63 ± 0.25		
CCCCCCCCCC [decane] + CCCCCCCCCCCCCC[N+](CCCCCC)(CCCCCC)CCCCCC.C[C@H](O)C(=O)[O-]	1.67 ± 0.11			1.63 ± 0.11	1.59 ± 0.11
ClCCl [dichloromethane] + CC1(C)[C@@H]2CC[C@@]1(CS(=O)(=O)[O-])C(=O)C2.CCCCCCCCCCCCCC[N+](CCCCCC)(CCCCCC)CCCCCC	0.09 ± 0.03	0.15 ± 0.03	0.22 ± 0.03		
ClCCl [dichloromethane] + CCCCCCCCCCCCCC[N+](CCCCCC)(CCCCCC)CCCCCC.C[C@H](O)C(=O)[O-]	0.06			0.08 ± 0.03	0.1
CCOCC [diethyl ether] + CC1(C)[C@@H]2CC[C@@]1(CS(=O)(=O)[O-])C(=O)C2.CCCCCCCCCCCCCC[N+](CCCCCC)(CCCCCC)CCCCCC	0.73 ± 0.05	0.96 ± 0.06	1.14 ± 0.07		
CCOCC [diethyl ether] + CCCCCCCCCCCCCC[N+](CCCCCC)(CCCCCC)CCCCCC.C[C@H](O)C(=O)[O-]	0.84 ± 0.05			0.79 ± 0.05	0.77 ± 0.05
CC(C)OC(C)C [diisopropyl ether] + CC1(C)[C@@H]2CC[C@@]1(CS(=O)(=O)[O-])C(=O)C2.CCCCCCCCCCCCCC[N+](CCCCCC)(CCCCCC)CCCCCC	1	1.39 ± 0.09	1.77 ± 0.12		
CC(C)OC(C)C [diisopropyl ether] + CCCCCCCCCCCCCC[N+](CCCCCC)(CCCCCC)CCCCCC.C[C@H](O)C(=O)[O-]	1.13 ± 0.07			1.08 ± 0.07	1.06 ± 0.07
CCCCCCCCCCCC [dodecane] + CC1(C)[C@@H]2CC[C@@]1(CS(=O)(=O)[O-])C(=O)C2.CCCCCCCCCCCCCC[N+](CCCCCC)(CCCCCC)CCCCCC	1.72 ± 0.12	3.15 ± 0.22	5.14 ± 0.35		
CCO [ethanol] + CC1(C)[C@@H]2CC[C@@]1(CS(=O)(=O)[O-])C(=O)C2.CCCCCCCCCCCCCC[N+](CCCCCC)(CCCCCC)CCCCCC	0.1	0.17 ± 0.03	0.26 ± 0.03		
CCO [ethanol] + CCCCCCCCCCCCCC[N+](CCCCCC)(CCCCCC)CCCCCC.C[C@H](O)C(=O)[O-]	0.03			0.03	0.04
CCc1ccccc1 [ethylbenzene] + CC1(C)[C@@H]2CC[C@@]1(CS(=O)(=O)[O-])C(=O)C2.CCCCCCCCCCCCCC[N+](CCCCCC)(CCCCCC)CCCCCC	0.49 ± 0.04	0.76 ± 0.05	1.11 ± 0.07		
CCc1ccccc1 [ethylbenzene] + CCCCCCCCCCCCCC[N+](CCCCCC)(CCCCCC)CCCCCC.C[C@H](O)C(=O)[O-]	0.56 ± 0.04			0.56 ± 0.04	0.57 ± 0.04
CCCCCCC [heptane] + CC1(C)[C@@H]2CC[C@@]1(CS(=O)(=O)[O-])C(=O)C2.CCCCCCCCCCCCCC[N+](CCCCCC)(CCCCCC)CCCCCC	1.14 ± 0.07	1.57 ± 0.1	2.14 ± 0.15		
CCCCCCC [heptane] + CCCCCCCCCCCCCC[N+](CCCCCC)(CCCCCC)CCCCCC.C[C@H](O)C(=O)[O-]	1.22 ± 0.08			1.17 ± 0.07	1.16 ± 0.07
C=CCCCC [hex-1-ene] + CC1(C)[C@@H]2CC[C@@]1(CS(=O)(=O)[O-])C(=O)C2.CCCCCCCCCCCCCC[N+](CCCCCC)(CCCCCC)CCCCCC	0.85 ± 0.05	1.13 ± 0.07	1.75 ± 0.12		
C=CCCCC [hex-1-ene] + CCCCCCCCCCCCCC[N+](CCCCCC)(CCCCCC)CCCCCC.C[C@H](O)C(=O)[O-]	0.93 ± 0.06			0.95 ± 0.06	0.97 ± 0.06
CCCCCC [hexane] + CC1(C)[C@@H]2CC[C@@]1(CS(=O)(=O)[O-])C(=O)C2.CCCCCCCCCCCCCC[N+](CCCCCC)(CCCCCC)CCCCCC	1.05 ± 0.07	1.54 ± 0.1	1.81 ± 0.12		
CCCCCC [hexane] + CCCCCCCCCCCCCC[N+](CCCCCC)(CCCCCC)CCCCCC.C[C@H](O)C(=O)[O-]	1.11 ± 0.07			1.06 ± 0.07	1.06 ± 0.07
CO [methanol] + CC1(C)[C@@H]2CC[C@@]1(CS(=O)(=O)[O-])C(=O)C2.CCCCCCCCCCCCCC[N+](CCCCCC)(CCCCCC)CCCCCC	0.08 ± 0.03	0.13 ± 0.03	0.2		
